These results are taken from patent US5130421A, “Production of 2',3'-dideoxy-2',3'-didehydronucleosides” (priority 1991, dated 1992).

Structures are written as SMILES. Like-named read-outs stand apart in the source and are kept apart here.

Data set [1] is described as follows: cellular toxicity measured in CEM cells. Particulars: human, read-out: TCID50 (the 50% tissue culture inhibitory dose). It is filed as cell-based. As for the experimental part:
cellular toxicity^b of AZT and d4T.
^b The cellular toxicity was measured in CEM cells.
^d The 50% tissue culture inhibitory dose.

In the next data set the test system is HIV (LAV strain). Nature of the data set: in vitro anti-HIV efficacy (antiviral test on HIV (LAV strain)-infected CEM cells). It is filed as cell-based. Particulars: Human immunodeficiency virus 1, CCRF-CEM, read-out: ID50 (the 50% inhibitory dose). As to the method:
Comparative in vitro anti-HIV efficacy^a and
^a The antiviral test was performed on HIV (LAV strain)infected CEM
^c The 50% inhibitory dose.

In another data set the test system is AIDS. Particulars: clinical trials, patients with AIDS; cited from earlier work.
For data set [2], the system named is HIV. Particulars: cited from earlier work.
The test system of data set [3] is HIV. Particulars: in several cell lines; cited from earlier work.

Turning to `Cc1cn([C@H]2C[C@H](N=[N+]=[N-])[C@@H](CO)O2)c(=O)[nH]c1=O` [AZT, 3'-azido-3'-deoxythymidine], in data set [1], the CC50 is 54 µM. Also, the IC50 in the data set on HIV (LAV strain) stood at 0.45 µM. Also, the “efficacy in the treatment of AIDS” value in the data set on AIDS is “efficacious agent in the treatment of AIDS in clinical trials”.
For the compound `Cc1cn([C@H]2C[C@H](F)[C@@H](CO)O2)c(=O)[nH]c1=O` [FDDT, 3'-fluoro-3'-deoxythymidine], the “reported activity against HIV” value in the data set on HIV [2] is on record as “active against HIV”.
With `O[C@H]1[C@H](O)[C@@H](O)CN2CC[C@H](O)[C@H]12` [castanospermine], the “reported activity against HIV” value in the data set on HIV [2] is recorded as “active against HIV”.
For the compound `Nc1ccn([C@H]2C=C[C@@H](CO)O2)c(=O)n1` [d4C, 2',3'-dideoxy-2',3'-didehydrocytidine], in the data set on HIV [2], the “reported activity against HIV” value is reported as “active against HIV”.
As to `Cc1cn([C@H]2C=C[C@@H](CO)O2)c(=O)[nH]c1=O` [d4T, 1-(2,3-Dideoxy-β-D-glycero-pent-2-enofuranosyl)thymine], the CC50 in data set [1] came to 39 µM. The IC50 with HIV (LAV strain) (in vitro anti-HIV efficacy, HIV (LAV strain) infected CEM cells) came to 0.33 µM. In addition, the “in vitro activity against HIV” value in the data set with HIV [3] was “possesses in vitro activity against HIV in several cell lines”.
For `CC(C)(S)[C@@H](N)C(=O)O` [d-penicillamine], in the data set with HIV [2], the “reported activity against HIV” value is “active against HIV”.
As for `Nc1ncnc2c1ncn2[C@H]1CC[C@@H](CO)O1` [ddA, 2',3'-dideoxyadenosine], the “reported activity against HIV” value in the data set on HIV [2] is recorded as “active against HIV”.
For the compound `Nc1ccn([C@H]2CC[C@@H](CO)O2)c(=O)n1` [ddC, 2',3'-Dideoxycytidine], in the data set with HIV [2], the “reported activity against HIV” value is recorded as “active against HIV”.
As for `O=C(O)P(=O)(O)O` [foscarnet], in the data set with HIV [2], the “reported activity against HIV” value is listed as “active against HIV”.
On to `CC(=O)O[C@H]1C[C@@]2(C)[C@@H](C[C@@H](O)[C@H]3[C@@]4(C)CC[C@@H](O)[C@@H](C)[C@@H]4CC[C@@]32C)/C1=C(\CCC=C(C)C)C(=O)O` [fusidic acid], for which, in the data set on HIV [2], the “reported activity against HIV” value is reported as “active against HIV”.
Regarding `NC(=O)c1ncn([C@@H]2O[C@H](CO)[C@@H](O)[C@H]2O)n1` [ribavarin], the “reported activity against HIV” value in the data set on HIV [2] is reported as “active against HIV”.
`Cc1ccc(C(=O)Nc2ccc(S(=O)(=O)O)c3cc(S(=O)(=O)O)cc(S(=O)(=O)O)c23)cc1NC(=O)c1cccc(NC(=O)Nc2cccc(C(=O)Nc3cc(C(=O)Nc4ccc(S(=O)(=O)O)c5cc(S(=O)(=O)O)cc(S(=O)(=O)O)c45)ccc3C)c2)c1` [suramine]: in the data set with HIV [2], the “reported activity against HIV” value is listed as “active against HIV”.
